According to patent US20240209028A1, “CNP COMPOUNDS” (priority 2022, published 2024):
Starred links: 1 amine or outer side, 2 acyl side, 3 side chain; linkers in the order of their positions; H or OH if unused. Positions of bridges follow the written chain, without caps; N, C: chain ends. Residues, ends and D or L forms follow the SMILES beside them. *: point of attachment. C18 diacid = O=C(O)CCCCCCCCCCCCCCCCC(=O)*; γGlu = O=C(O)[C@H](CCC(=O)[*:2])N[*:1]; AEEA = NCCOCCOCC(=O)O

Target: T1, human natriuretic peptide receptor 2 (hNPR2) (Homo sapiens, UniProt P20594)
T1 construct: expressed in transfected cells; host or cells: HEK293 (ATCC CRL-1573), clone 35, co-transfected with pGloSensor-42F
T1 sequence (P20594 23-1047): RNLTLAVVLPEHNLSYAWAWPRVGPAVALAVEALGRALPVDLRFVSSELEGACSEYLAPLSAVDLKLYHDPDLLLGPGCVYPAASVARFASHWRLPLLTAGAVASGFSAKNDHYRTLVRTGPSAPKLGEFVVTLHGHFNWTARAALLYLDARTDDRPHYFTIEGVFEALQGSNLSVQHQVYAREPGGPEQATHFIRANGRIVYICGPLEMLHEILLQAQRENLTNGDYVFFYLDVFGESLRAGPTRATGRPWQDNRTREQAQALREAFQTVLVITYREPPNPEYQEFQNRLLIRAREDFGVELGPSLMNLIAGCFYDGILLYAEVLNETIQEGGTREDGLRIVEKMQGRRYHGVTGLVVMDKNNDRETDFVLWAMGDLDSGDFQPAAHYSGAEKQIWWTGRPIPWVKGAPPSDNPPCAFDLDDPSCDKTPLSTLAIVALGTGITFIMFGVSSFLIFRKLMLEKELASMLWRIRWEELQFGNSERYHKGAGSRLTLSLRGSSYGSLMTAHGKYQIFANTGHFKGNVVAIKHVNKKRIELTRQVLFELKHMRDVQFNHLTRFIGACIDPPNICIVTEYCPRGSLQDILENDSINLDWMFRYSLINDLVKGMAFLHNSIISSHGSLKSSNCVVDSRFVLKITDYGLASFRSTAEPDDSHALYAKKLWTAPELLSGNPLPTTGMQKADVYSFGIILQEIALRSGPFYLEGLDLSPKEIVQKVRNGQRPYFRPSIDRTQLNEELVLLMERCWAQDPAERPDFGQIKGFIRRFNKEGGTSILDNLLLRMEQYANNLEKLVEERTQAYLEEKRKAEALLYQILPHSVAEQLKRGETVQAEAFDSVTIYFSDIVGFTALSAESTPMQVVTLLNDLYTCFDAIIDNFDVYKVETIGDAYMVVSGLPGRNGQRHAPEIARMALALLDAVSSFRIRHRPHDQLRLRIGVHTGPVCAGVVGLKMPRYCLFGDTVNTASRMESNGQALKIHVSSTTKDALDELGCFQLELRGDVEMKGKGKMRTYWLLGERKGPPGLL
Test: In vitro hNPR2 activity assay (cGMP GloSensor reporter, HEK293)
Assay type: cell-based
Conditions: for EC50: 0% HSA, HEK293-hNPR2/GloSensor cells; for hNPR2 0% HSA. [EC50% rel CNP]: potency relative to CNP22 (0065)
Procedure: To evaluate the in vitro activity of CNP22 (0065; Chem. 1) and CNP compounds of the invention, they were tested for their ability to induce production of cyclic guanosine monophosphate (cGMP) in reporter cells expressing the human natriuretic peptide receptor 2 (hNPR2).
Cell culture: To produce the reporter cell line, HEK293 (ATCC® CRL-1573™) cells were stably transfected with the pGloSensor-42F reporter plasmid (GloSensor cGMP reporter—luciferase, Promega) and an expression plasmid encoding the hNPR2 receptor. A single cell clone was isolated for the reporter cell line. When reporter cells are exposed to an hNPR2 activating compound, hNPR2 cause production of cGMP. […] Active GloSensor luciferase is able to convert luciferin to oxyluciferin, a process that produces bioluminescence. Upon cell lysis and supply of luciferase substrate, luciferase activity can be quantified by detection of luminescence. Therefore, addition of an hNPR2 activating compound and subsequent addition of detection reagent to reporter cells causes generation of luminescence in a dose dependent manner. […] This measure, also referred to as in vitro potency, is reported for all compounds tested. In all the in vitro activity experiments, CNP22 was used as a positive in-plate control for hNPR2 activation. To reduce inter-assay variation, we also report the potency of each compound relative to the potency of the CNP22 control on each plate.
Procedure: HEK293-hNPR2/GloSensor clone 35 cells were continuously cultured in selection medium (DMEM containing 10% FCS, 1% P/S, 200 μg/mL G418 and 100 μg/mL hygromycin). To perform the assay, cells were detached with TrypLE Express (Gibco #12604013), put through a 70 μm cell strainer, counted and seeded in 30 μL/well assay medium (DMEM without phenol red and with 1% P/S) at 10,000 cells/well in white 384-well plates (Perkin Elmer #6007680) overnight. The following day, test compounds were serial diluted in dilution medium (DMEM without phenol red containing 1% OVA (Sigma #A5505 lot 04M7001V), 0.01% Tween20 (Roche #33766700) and 1% P/S) and 10 μL/well of diluted test compounds were subsequently added to the cells. For each compound, ten different concentrations in the range 0.25 μM-10 μM were tested. After 30 min of incubation at 37° C. and 5% CO2, 40 μL/well Bright-Glo detection reagent (Promega #E2650) was added. […] To determine the in vitro potency or EC50 of each test compound, a four parameter logistic regression was done on the raw data for each test compound using the Python package SciPy optimize. The average EC50 values are listed as “hNPR2 0% HSA. [EC50 (nM)]” in Table 2. A relative potency was calculated by the following expression: EC50 (CNP22 in-plate control)/EC50 (test compound)*100, shown as “hNPR2 0% HSA. [EC50% rel CNP]” in Table 2. A minimum of two replicates was measured for each test compound.

| Structure (SMILES) | EC50 [nM] | hNPR2 0% HSA. [EC50% rel CNP] [%] |
| --- | --- | --- |
| CC[C@H](C)[C@@H]1NC(=O)[C@H](CCCNC(=N)N)NC(=O)[C@H](CC(=O)O)NC(=O)[C@H](CC(C)C)NC(=O)[C@H](CCCCN)NC(=O)[C@H](CC(C)C)NC(=O)CNC(=O)[C@H](Cc2ccccc2)NC(=O)[C@@H](NC(=O)CNC(=O)[C@H](CCCCN)NC(=O)[C@H](CO)NC(=O)[C@H](CC(C)C)NC(=O)CNC(=O)[C@H](CCCCN)NC(=O)[C@H](CCC(=O)O)NC(=O)[C@H](CCC(N)=O)NC(=O)[C@H](C)NC(=O)CNC(=O)[C@H](CCC(=O)O)NC(=O)[C@H](Cc2ccc(O)cc2)NC(=O)COCCOCCNC(=O)COCCOCCNC(=O)CC[C@H](NC(=O)CCCCCCCCCCCCCCCCC(=O)O)C(=O)O)CSSC[C@@H](C(=O)O)NC(=O)CNC(=O)[C@H](CC(C)C)NC(=O)CNC(=O)[C@H](CO)NC(=O)[C@H](CC(C)C)NC(=O)[C@H](CO)NC(=O)CNC1=O [compound 1223] ({C18 diacid-γGlu-AEEA-AEEA}-YEGAQEKGLSKGCFGLKLDRIGSLSGLGC-OH; disulfide 13-29) | 1.05 | 6.77 |
| CC[C@H](C)[C@@H]1NC(=O)[C@H](CCCNC(=N)N)NC(=O)[C@H](CC(=O)O)NC(=O)[C@H](CC(C)C)NC(=O)[C@H](CCCCN)NC(=O)[C@H](CC(C)C)NC(=O)CNC(=O)[C@H](Cc2ccccc2)NC(=O)[C@@H](NC(=O)CNC(=O)[C@H](CCCCN)NC(=O)[C@H](CO)NC(=O)[C@H](CC(C)C)NC(=O)CNC(=O)[C@H](Cc2c[nH]cn2)NC(=O)[C@H](Cc2c[nH]cn2)NC(=O)[C@H](CCC(N)=O)NC(=O)[C@H](C)NC(=O)CNC(=O)[C@H](Cc2c[nH]cn2)NC(=O)[C@H](Cc2ccc(O)cc2)NC(=O)COCCOCCNC(=O)COCCOCCNC(=O)CC[C@H](NC(=O)CCCCCCCCCCCCCCCCC(=O)O)C(=O)O)CSSC[C@@H](C(=O)O)NC(=O)CNC(=O)[C@H](CC(C)C)NC(=O)CNC(=O)[C@H](CO)NC(=O)[C@H](CC(C)C)NC(=O)[C@H](CO)NC(=O)CNC1=O [compound 1345] ({C18 diacid-γGlu-AEEA-AEEA}-YHGAQHHGLSKGCFGLKLDRIGSLSGLGC-OH; disulfide 13-29) | 0.38 | 21.1 |
| CC[C@H](C)[C@@H]1NC(=O)[C@H](CCCNC(=N)N)NC(=O)[C@H](CC(=O)O)NC(=O)[C@H](CC(C)C)NC(=O)[C@@H]2CCCN2C(=O)[C@H](CC(C)C)NC(=O)CNC(=O)[C@H](Cc2ccccc2)NC(=O)[C@@H](NC(=O)CNC(=O)[C@H](CCC(N)=O)NC(=O)[C@H](CO)NC(=O)[C@@H](NC(=O)CNC(=O)[C@H](CCCCN)NC(=O)[C@H](CCCCN)NC(=O)[C@H](CCC(N)=O)NC(=O)[C@H](C)NC(=O)CNC(=O)[C@H](CCCCN)NC(=O)[C@H](Cc2ccc(O)cc2)NC(=O)COCCOCCNC(=O)COCCOCCNC(=O)COCCOCCNC(=O)COCCOCCNC(=O)CC[C@H](NC(=O)CC[C@H](NC(=O)CCCCCCCCCCCCCCCCC(=O)O)C(=O)O)C(=O)O)C(C)C)CSSC[C@@H](C(=O)O)NC(=O)CNC(=O)[C@H](CC(C)C)NC(=O)CNC(=O)[C@H](CO)NC(=O)[C@H](CC(C)C)NC(=O)[C@H](CO)NC(=O)CNC1=O [compound 1436] ({C18 diacid-γGlu-γGlu-AEEA-AEEA-AEEA-AEEA}-YKGAQKKGVSQGCFGLPLDRIGSLSGLGC-OH; disulfide 13-29; C-terminus assumed) |  | 30.2 |
| CC[C@H](C)[C@@H]1NC(=O)[C@H](CCCNC(=N)N)NC(=O)[C@H](CC(=O)O)NC(=O)[C@H](CC(C)C)NC(=O)[C@@H]2CCCN2C(=O)[C@H](CC(C)C)NC(=O)CNC(=O)[C@H](Cc2ccccc2)NC(=O)[C@@H](NC(=O)CNC(=O)[C@H](CO)NC(=O)[C@H](CO)NC(=O)[C@H](CC(C)C)NC(=O)CNC(=O)[C@H](CCCCN)NC(=O)[C@H](CCCCN)NC(=O)[C@H](CCC(N)=O)NC(=O)[C@H](C)NC(=O)CNC(=O)[C@H](CCCCN)NC(=O)[C@H](Cc2ccc(O)cc2)NC(=O)COCCOCCNC(=O)COCCOCCNC(=O)COCCOCCNC(=O)CC[C@H](NC(=O)CCCCCCCCCCCCCCCCC(=O)O)C(=O)O)CSSC[C@@H](C(=O)O)NC(=O)CNC(=O)[C@H](CC(C)C)NC(=O)CNC(=O)[C@H](CO)NC(=O)[C@H](CC(C)C)NC(=O)[C@H](CO)NC(=O)CNC1=O [compound 1355] ({C18 diacid-γGlu-AEEA-AEEA-AEEA}-YKGAQKKGLSSGCFGLPLDRIGSLSGLGC-OH; disulfide 13-29) |  | 28.2 |
| CC[C@H](C)[C@@H]1NC(=O)[C@H](CCCNC(=N)N)NC(=O)[C@H](CC(=O)O)NC(=O)[C@H](CC(C)C)NC(=O)[C@H](CCCCN)NC(=O)[C@H](CC(C)C)NC(=O)CNC(=O)[C@H](Cc2ccccc2)NC(=O)[C@@H](NC(=O)CNC(=O)[C@H](CCCCN)NC(=O)[C@H](CO)NC(=O)[C@H](CC(C)C)NC(=O)CNC(=O)[C@H](CCCCN)NC(=O)[C@H](CCCCN)NC(=O)[C@H](CC(N)=O)NC(=O)[C@H](C)NC(=O)CNC(=O)[C@H](CCCCN)NC(=O)[C@H](Cc2ccc(O)cc2)NC(=O)[C@H](CCCCN)NC(=O)[C@H](CCCNC(=N)N)NC(=O)[C@H](C)NC(=O)[C@H](CC(N)=O)NC(=O)[C@@H]2CCCN2C(=O)[C@H](Cc2c[nH]cn2)NC(=O)[C@H](CCC(=O)O)NC(=O)[C@@H](N)CCC(N)=O)CSSC[C@@H](C(=O)O)NC(=O)CNC(=O)[C@H](CC(C)C)NC(=O)CNC(=O)[C@H](CO)NC(=O)[C@H](CCSC)NC(=O)[C@H](CO)NC(=O)CNC1=O [compound 1510] | 0.05 | 139.2 |
| CC[C@H](C)[C@@H]1NC(=O)[C@H](CCCNC(=N)N)NC(=O)[C@H](CC(=O)O)NC(=O)[C@H](CC(C)C)NC(=O)[C@@H]2CCCN2C(=O)[C@H](CC(C)C)NC(=O)CNC(=O)[C@H](Cc2ccccc2)NC(=O)[C@@H](NC(=O)CNC(=O)[C@H](Cc2c[nH]cn2)NC(=O)[C@H](CO)NC(=O)CNC(=O)CNC(=O)[C@H](CCCCN)NC(=O)[C@H](CCCCN)NC(=O)[C@H](CCC(N)=O)NC(=O)[C@H](C)NC(=O)CNC(=O)[C@H](CCC(=O)O)NC(=O)[C@H](Cc2ccc(O)cc2)NC(=O)COCCOCCNC(=O)COCCOCCNC(=O)COCCOCCNC(=O)COCCOCCNC(=O)CC[C@H](NC(=O)CCCCCCCCCCCCCCCCC(=O)O)C(=O)O)CSSC[C@@H](C(=O)O)NC(=O)CNC(=O)[C@H](CC(C)C)NC(=O)CNC(=O)[C@H](CO)NC(=O)[C@H](CC(C)C)NC(=O)[C@H](CO)NC(=O)CNC1=O [compound 1431] ({C18 diacid-γGlu-AEEA-AEEA-AEEA-AEEA}-YEGAQKKGGSHGCFGLPLDRIGSLSGLGC-OH; disulfide 13-29; C-terminus assumed) |  | 14.3 |
